Assay results from patent US11051515B2, “3-acyl-benzamides and their use as herbicides” (Bayer Aktiengesellschaft, priority 2017, dated 2021).

Tests used:
ALOMY [1] = assay: Pre-emergence action against ALOMY; assay type: in vivo, Alopecurus myosuroides; conditions: dosage 320 g/ha, pre-emergence, scored visually after 3 weeks vs untreated controls, 100% = plants have died, 0% = like control plants
Outline: (§1)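 Seeds sown in sandy loam in wood-fiber pots and covered with soil. Greenhouse growth; visual damage scored after 3 weeks versus untreated controls (100% = dead, 0% = like control).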

AVEFA [2] = assay: Pre-emergence action against AVEFA; assay type: in vivo, Avena fatua; conditions: dosage 320 g/ha, scored visually after 3 weeks vs untreated controls
Outline: as §1

ECHCG [3] = assay: Pre-emergence action against ECHCG; assay type: in vivo, Echinochloa crus-galli; conditions: pre-emergence, dosage 320 g/ha, scored visually after 3 weeks vs untreated controls
Outline: as §1

LOLRI = assay: Pre-emergence action against LOLRI; assay type: in vivo, Lolium rigidum; conditions: dosage 320 g/ha, scored visually after 3 weeks vs untreated controls
Outline: as §1

SETVI [4] = assay: Pre-emergence action against SETVI; assay type: in vivo, Setaria viridis; conditions: pre-emergence, dosage 320 g/ha, scored visually after 3 weeks vs untreated controls
Outline: as §1

ABUTH [5] = assay: Pre-emergence action against ABUTH; assay type: in vivo, Abutilon theophrasti; conditions: pre-emergence, dosage 320 g/ha, scored visually after 3 weeks vs untreated controls
Outline: as §1

AMARE [6] = assay: Pre-emergence action against AMARE; assay type: in vivo, Amaranthus retroflexus; conditions: pre-emergence, dosage 320 g/ha, scored visually after 3 weeks vs untreated controls
Outline: as §1

MATIN [7] = assay: Pre-emergence action against MATIN; assay type: in vivo, Matricaria inodora; conditions: Dosage 320 g/ha, pre-emergence
Outline: as §1

PHBPU [8] = assay: Pre-emergence action against PHBPU; assay type: in vivo, Pharbitis purpurea; conditions: Dosage 320 g/ha, pre-emergence
Outline: as §1

POLCO [9] = assay: Pre-emergence action against POLCO; assay type: in vivo, Polygonum convolvulus; conditions: Dosage 320 g/ha, pre-emergence
Outline: as §1

STEME [10] = assay: Pre-emergence action against STEME; assay type: in vivo, Stellaria media; conditions: Dosage 320 g/ha, pre-emergence
Outline: as §1

VIOTR [11] = assay: Pre-emergence action against VIOTR; assay type: in vivo, Viola tricolor; conditions: Dosage 320 g/ha, pre-emergence
Outline: as §1

VERPE [12] = assay: Pre-emergence action against VERPE; assay type: in vivo, Veronica persica; conditions: Dosage 320 g/ha, pre-emergence
Outline: as §1

HORMU = assay: Pre-emergence action against HORMU; assay type: in vivo, Hordeum murinum; conditions: Dosage 320 g/ha
From the text: (§2) Seeds of monocotyledonous and dicotyledonous weed plants and crop plants are laid out in sandy loam soil in wood-fiber pots and covered with soil. The compounds of the invention, formulated in the form of wettable powders (WP) or as emulsion concentrates (EC), are then applied to the surface of the covering soil in the form of an aqueous suspension or emulsion at a water application rate equating to […], with addition of 0.2% wetting agent. After the treatment, the pots are placed in a greenhouse and kept under good growth conditions for the trial plants. The damage to the test plants is scored visually after a test period of 3 weeks by comparison with untreated controls (herbicidal activity in percent (%): 100% activity=the plants have died, 0% activity=like control plants).

AVEFA [13] = assay: Post-emergence action against AVEFA; assay type: in vivo, Avena fatua; conditions: post-emergence, dosage 80 g/ha, visual assessment about 3 weeks after treatment vs untreated controls
Outline: (§3)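 Post-emergence foliar spray on greenhouse plants at the one-leaf stage, using wettable-powder or emulsion-concentrate formulations in water (600 to […], plus 0.2% wetting agent). Damage scored by eye roughly 3 weeks later against untreated plants: 0% = like control, 100% = dead.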

CYPES = assay: Post-emergence action against CYPES; assay type: in vivo, Cyperus esculentus; conditions: post-emergence, dosage 80 g/ha, visual assessment about 3 weeks after treatment vs untreated controls
Outline: as §3

ECHCG [14] = assay: Post-emergence action against ECHCG; assay type: in vivo, Echinochloa crus-galli; conditions: post-emergence, dosage 80 g/ha, visual assessment about 3 weeks after treatment vs untreated controls
Outline: as §3

SETVI [15] = assay: Post-emergence action against SETVI; assay type: in vivo, Setaria viridis; conditions: post-emergence, dosage 80 g/ha, visual assessment about 3 weeks after treatment vs untreated controls
Outline: as §3

ABUTH [16] = assay: Post-emergence action against ABUTH; assay type: in vivo, Abutilon theophrasti; conditions: post-emergence, dosage 80 g/ha, visual assessment about 3 weeks after treatment vs untreated controls
Outline: as §3

AMARE [17] = assay: Post-emergence action against AMARE; assay type: in vivo, Amaranthus retroflexus; conditions: post-emergence, dosage 80 g/ha, visual assessment about 3 weeks after treatment vs untreated controls
Outline: as §3

MATIN [18] = assay: Post-emergence action against MATIN; assay type: in vivo, Matricaria inodora; conditions: post-emergence, dosage 80 g/ha, visual assessment about 3 weeks after treatment vs untreated controls
Outline: as §3

PHBPU [19] = assay: Post-emergence action against PHBPU; assay type: in vivo, Pharbitis purpurea; conditions: post-emergence, dosage 80 g/ha
Outline: as §3

STEME [20] = assay: Post-emergence action against STEME; assay type: in vivo, Stellaria media; conditions: post-emergence, dosage 80 g/ha
Outline: as §3

VIOTR [21] = assay: Post-emergence action against VIOTR; assay type: in vivo, Viola tricolor; conditions: post-emergence, dosage 80 g/ha
Outline: as §3

DIGSA = assay: Pre-emergence action against DIGSA; assay type: in vivo, Digitaria sanguinalis; conditions: dosage 320 g/ha, scored visually after 3 weeks vs untreated controls
From the text: as §2

ALOMY [22] = assay: Post-emergence action against ALOMY; assay type: in vivo, Alopecurus myosuroides; conditions: Alopecurus myosuroides, 504 h; Dosage 80 g/ha, post-emergence
Outline: as §3

POLCO [23] = assay: Post-emergence action against POLCO; assay type: in vivo, Polygonum convolvulus; conditions: Fallopia convolvulus, 504 h; post-emergence, dosage 80 g/ha
Outline: as §3

VERPE [24] = assay: Post-emergence action against VERPE; assay type: in vivo, Veronica persica; conditions: Veronica persica, 504 h, dosage 80 g/ha
Outline: as §3

With CCCn1nnnc1NC(=O)c1ccc(C(F)F)c(C(=O)C2CC2)c1Cl [3-168] the “Pre-emergence action against ALOMY (herbicidal activity in percent)” value (ALOMY [1]) was 100%, the “Pre-emergence action against AVEFA (herbicidal activity)” value (AVEFA [2]) was 100% and the “Pre-emergence action against ECHCG (herbicidal activity)” value (ECHCG [3]) was 100%. For the same molecule, the “Pre-emergence action against LOLRI (herbicidal activity)” value (LOLRI) was 100%, the “SETVI (Table B8, pre-emergence herbicidal activity)” value (SETVI [4]) was 100% and the “Pre-emergence action against ABUTH (herbicidal activity)” value (ABUTH [5]) was 100%. For the same molecule, the “Pre-emergence action against AMARE (herbicidal activity)” value (AMARE [6]) was 100%, the “Pre-emergence action against MATIN” value (MATIN [7]) was 100% and the “Pre-emergence action against PHBPU” value (PHBPU [8]) was 100%. The “Pre-emergence action against POLCO” value (POLCO [9]) was 80%, the “Pre-emergence action against STEME” value (STEME [10]) was 100% and the “Pre-emergence action against VIOTR” value (VIOTR [11]) was 100%. The “Pre-emergence action against VERPE” value (VERPE [12]) was 100%, the “Pre-emergence action against HORMU” value (HORMU) was 90% and the “Post-emergence action against AVEFA (herbicidal action in percent)” value (AVEFA [13]) was 90%. The “Post-emergence action against CYPES (herbicidal action in percent)” value (CYPES) was 90%, the “Post-emergence action against ECHCG (herbicidal action in percent)” value (ECHCG [14]) was 100% and the “Post-emergence action against SETVI (herbicidal action in percent)” value (SETVI [15]) was 100%. For the same molecule, the “Post-emergence action against ABUTH (herbicidal action in percent)” value (ABUTH [16]) was 100%, the “Post-emergence action against AMARE (herbicidal action in percent)” value (AMARE [17]) was 100% and the “Post-emergence action against MATIN (herbicidal action in percent)” value (MATIN [18]) was 100%. The “Post-emergence action against PHBPU” value (PHBPU [19]) was 100, the “Post-emergence action against STEME” value (STEME [20]) was 100 and the “Post-emergence action against VIOTR” value (VIOTR [21]) was 100.

In the case of CCCn1nnnc1NC(=O)c1ccc(C(F)(F)F)c(C(=O)C(F)F)c1Cl [3-163], the “Pre-emergence action against DIGSA (herbicidal activity)” value (DIGSA) is reported as 100%, the “SETVI (Table B8, pre-emergence herbicidal activity)” value (SETVI [4]) is reported as 100% and the “Pre-emergence action against ABUTH (herbicidal activity)” value (ABUTH [5]) is reported as 100%. For the same molecule, the “Pre-emergence action against AMARE (herbicidal activity)” value (AMARE [6]) was 100%, the “Pre-emergence action against MATIN” value (MATIN [7]) was 100% and the “Pre-emergence action against PHBPU” value (PHBPU [8]) was 80%. For the same molecule, the “Pre-emergence action against STEME” value (STEME [10]) was 90%, the “Pre-emergence action against VIOTR” value (VIOTR [11]) was 100% and the “Post-emergence action against ECHCG (herbicidal action in percent)” value (ECHCG [14]) was 80%. The “Post-emergence action against ABUTH (herbicidal action in percent)” value (ABUTH [16]) was 80%, the “Post-emergence action against AMARE (herbicidal action in percent)” value (AMARE [17]) was 100% and the “Post-emergence action against MATIN (herbicidal action in percent)” value (MATIN [18]) was 90%. The “Post-emergence action against PHBPU” value (PHBPU [19]) was 90, the “Post-emergence action against STEME” value (STEME [20]) was 100 and the “Post-emergence action against VIOTR” value (VIOTR [21]) was 80.

Work on CSc1c(C(=O)Nc2nnnn2C)ccc(C(F)F)c1C(C)=O [1-65] yielded a pest or weed control at 320 g/ha (ALOMY [1]; Alopecurus myosuroides, 504 h, read-out: Pre-emergence action against ALOMY (herbicidal activity in percent)) of 100%, a pest or weed control at 320 g/ha (AVEFA [2]; Avena fatua, 504 h, read-out: Pre-emergence action against AVEFA (herbicidal activity)) of 100% and a pest or weed control at 320 g/ha (ECHCG [3]; Echinochloa crus-galli, 504 h, read-out: Pre-emergence action against ECHCG (herbicidal activity)) of 100%. For the same molecule, the pest or weed control at 320 g/ha (LOLRI; Lolium rigidum, 504 h, read-out: Pre-emergence action against LOLRI (herbicidal activity)) was 80%, the pest or weed control at 320 g/ha (SETVI [4]; Setaria viridis, 504 h, read-out: SETVI (Table B8, pre-emergence herbicidal activity)) was 100% and the pest or weed control at 320 g/ha (ABUTH [5]; Abutilon theophrasti, 504 h, read-out: Pre-emergence action against ABUTH (herbicidal activity)) was 100%. It also gave a pest or weed control at 320 g/ha (AMARE [6]; Amaranthus retroflexus, 504 h, read-out: Pre-emergence action against AMARE (herbicidal activity)) of 100%, a pest or weed control at 320 g/ha (MATIN [7]; Tripleurospermum inodorum, 504 h) of 100% and a pest or weed control at 320 g/ha (PHBPU [8]; Ipomoea purpurea, 504 h) of 100%. The pest or weed control at 320 g/ha (POLCO [9]; Fallopia convolvulus, 504 h) was 100%, the pest or weed control at 320 g/ha (STEME [10]; Stellaria media, 504 h) was 100% and the pest or weed control at 320 g/ha (VIOTR [11]; Viola tricolor, 504 h) was 100%. For the same molecule, the pest or weed control at 320 g/ha (VERPE [12]; Veronica persica, 504 h) was 100%, the pest or weed control at 320 g/ha (HORMU; Hordeum murinum, 504 h) was 90% and the pest or weed control at 80 g/ha (ALOMY [22]) was 80%. For the same molecule, the pest or weed control at 80 g/ha (CYPES; Cyperus esculentus, 504 h, read-out: Post-emergence action against CYPES (herbicidal action in percent)) was 90%, the pest or weed control at 80 g/ha (ECHCG [14]; Echinochloa crus-galli, 504 h, read-out: Post-emergence action against ECHCG (herbicidal action in percent)) was 100% and the pest or weed control at 80 g/ha (SETVI [15]; Setaria viridis, 504 h, read-out: Post-emergence action against SETVI (herbicidal action in percent)) was 100%. It also gave a pest or weed control at 80 g/ha (ABUTH [16]; Abutilon theophrasti, 504 h, read-out: Post-emergence action against ABUTH (herbicidal action in percent)) of 100%, a pest or weed control at 80 g/ha (AMARE [17]; Amaranthus retroflexus, 504 h, read-out: Post-emergence action against AMARE (herbicidal action in percent)) of 100% and a pest or weed control at 80 g/ha (MATIN [18]; Tripleurospermum inodorum, 504 h, read-out: Post-emergence action against MATIN (herbicidal action in percent)) of 100%. It also gave a pest or weed control at 80 g/ha (PHBPU [19]; Ipomoea purpurea, 504 h) of 100%, a pest or weed control at 80 g/ha (POLCO [23]) of 100% and a pest or weed control at 80 g/ha (STEME [20]; Stellaria media, 504 h) of 100%. For the same molecule, the pest or weed control at 80 g/ha (VIOTR [21]; Viola tricolor, 504 h) was 100% and the pest or weed control at 80 g/ha (VERPE [24]) was 100%.
